Reference: patent US7384927B2, “Alkylated porphyrins as pesticides acting both in the presence and absence of light” (priority 2003, dated 2008)

What was measured:
Assay type in all cases: in vivo
[1] = system: Bactrocera oleae (olive fly); assay: Uptake of alkylated porphyrins by flies fed porphyrin-containing bait; settings: B. oleae
Experimental: (§1) Porphyrins: • a) meso[tri(N-methyl-pyridyl), mono(N-dodecyl-pyridyl)]porphine (abbr.: C12) • b) meso[tri(N-methyl-pyridyl), mono(N-tetradecyl-pyridyl)]porphine (abbr.: C14) • c) meso[tri(N-methyl-pyridyl), mono(N-octadecyl-pyridyl)]porphine (abbr.: C18) Bait: Aqueous solution containing 10% sucrose and 1% autolysed yeast Flies: • a) Ceratitis capitata (fruit fly) age: 1 week; weight: 5-6 mg • b) Bactrocera oleae (olive fly) age: 10 days; weight: 4-4.5 mg • c) Stomoxis calcitrans (stable fly) age: 10 days; weight: 12 mg Irradiation: • a) High pressure halogen lamp, equipped with infrared and UV filters, emission 360-850 nm, operated at intensities in the 760-2,000 μE s^−1m^−2 range • b) Sunlight, mid June at Padua latitude, average intensity of […] μE s^−1m^−2 with minimum and maximum values of 950 and, respectively, 1,380 μE s^−1m^−2
(§2) An appropriate number of flies (50 flies per each experiment) was caged in 115×55×70 mm Plexiglas cages with several holes (ø=0.5 mm) and starved for 36 h. Then, depending on the protocol to be adopted for each specific experiment, the flies were fed with the bait (10% sucrose and 1% autolysed yeast in neutral aqueous solution), which was either porphyrin-free or added with a predetermined concentration of the porphyrin. These flies were then used in the various experimental sessions.
(§3) At predetermined times, the flies were sacrificed by freezing; the dead flies were then homogenized with a Polytron in 10 ml of a 2% aqueous solution of sodium dodecylsulphate (SDS). The suspension was centrifuged for 10 min at 2,000 rpm, the pellet was discarded and known aliquots of the supernatant were diluted by means of a chloroform/methanol binary mixture (1/2, v/v). The porphyrin concentration was measured by reading the fluorescence emitted at wavelengths above 630 nm and interpolating the emission intensity with a calibration plot obtained with known amounts of the porphyrin. The results were expressed as nanomoles of porphyrin recovered per fly.

[2] = system: Ceratitis capitata (fruit fly); assay: as above; settings: C. capitata
Experimental: as §1, §2, §3

[3] = system: Stomoxis calcitrans (stable fly); assay: as above; settings: S. calcitrans
Experimental: as §1, §2, §3

[4] = system: Bactrocera oleae (olive fly); assay: Release of alkylated porphyrin from flies after feeding with bait interrupted; settings: B. oleae, 1.25 μM porphyrin in the bait
Experimental: as §2, §3

[5] = system: Ceratitis capitata (fruit fly); assay: as above; settings: C. capitata, 1.25 μM porphyrin in the bait
Experimental: as §2, §3

[6] = system: Stomoxis calcitrans (stable fly); assay: as above; settings: S. calcitrans, 1.25 μM porphyrin in the bait
Experimental: as §2, §3

Ceratitis capitata flies [7] = assay: Insecticidal action in the dark: fly survival after porphyrin bait; settings: dark, fed 24 h, survival 12 h after change to porphyrin-free bait
Experimental: For comparison, data obtained with two conventional porphyrins (as those described in WO 97/29637) offered to the insects for 24 h at a 3.0 and 8.1 μmolar concentration in the same bait are also shown. In all cases, the survival was determined 12 hours after changing food supply from a porphyrin-containing to a porphyrin-free bait. […] These flies were then used in the various experimental sessions. […] The number of survivors was evaluated 12 h after switching from administration of a porphyrin-containing bait to a porphyrin-free bait. In none of the experiments was mortality or any apparent toxic effect observed in control flies (flies not fed with porphyrin, see survival at 0 μM porphyrin concentration).

Ceratitis capitata flies [8] = assay: Photoinsecticidal action: fly survival after bait and visible light irradiation (artificial lamp); settings: for Survival (% of control untreated flies): survival 10 h after irradiation
Experimental: as §1
The irradiations were performed for 1 h, then the flies were kept in dim light for monitoring the survival. Control flies were irradiated under identical conditions after feeding with a porphyrin-free bait.
The irradiations were performed for 1 h at a fluence-rate of 1220 μE s^−1m^−2. The survival was evaluated 10 h after the end of irradiation. […] The porphyrins are abbreviated as following: HP: haematoporphyrin; C1: meso-tetra(N-methyl-pyridyl)porphine.
The survival was evaluated 10 h after the end of irradiation.
as §2, with “sessions. […]” for “sessions.”

Ceratitis capitata flies [9] = assay: Photoinsecticidal action: fly survival after bait and sunlight irradiation; settings: 3 μM in bait, 12 h after feeding, survival 1 h after irradiation
Experimental: as §1
The survival was evaluated 1 h after the end of irradiation.
as §2

[10] = exposure time to bait 3 h, porphyrin in bait 1.24 μM
[11] = exposure time to bait 12 h, porphyrin in bait 1.24 μM
[12] = exposure time to bait 24 h, porphyrin in bait 1.24 μM
[13] = porphyrin concentration in bait 0.75 (μmoles), feeding 24 h
[14] = porphyrin concentration in bait 1.25 (μmoles), feeding 24 h
[15] = porphyrin concentration in bait 2.10 (μmoles), feeding 24 h
[16] = porphyrin concentration in bait 3.50 (μmoles), feeding 24 h
[17] = porphyrin concentration in bait 6.00 (μmoles), feeding 24 h

`CCCCCCCCCCCCCCCCCC[n+]1ccc(-c2c3nc(c(-c4cc[n+](C)cc4)c4ccc([nH]4)c(-c4cc[n+](C)cc4)c4nc(c(-c5cc[n+](C)cc5)c5ccc2[nH]5)C=C4)C=C3)cc1` [C18, meso[tri(N-methyl-pyridyl), mono(N-octadecyl-pyridyl)]porphine] was tested, and the “Recoveries (nmoles of porphyrin per fly)” value [1, 10] was 1.6 nmoles of porphyrin per fly, the “Recoveries (nmoles of porphyrin per fly)” value [1, 11] was 7.7 nmoles of porphyrin per fly and the “Recoveries (nmoles of porphyrin per fly)” value [1, 12] was 8.9 nmoles of porphyrin per fly. For the same compound, the “Recoveries (nmoles of porphyrin per fly)” value [1, 13] was 5.2 nmoles of porphyrin per fly, the “Recoveries (nmoles of porphyrin per fly)” value [1, 14] was 8.9 nmoles of porphyrin per fly and the “Recoveries (nmoles of porphyrin per fly)” value [1, 15] was 9.7 nmoles of porphyrin per fly. For the same compound, the “Recoveries (nmoles of porphyrin per fly)” value [1, 16] was 12.0 nmoles of porphyrin per fly, the “Recoveries (nmoles of porphyrin per fly)” value [1, 17] was 12.9 nmoles of porphyrin per fly and the “Recoveries (nmoles of porphyrin per fly)” value [2, 10] was 3.1 nmoles of porphyrin per fly. For the same compound, the “Recoveries (nmoles of porphyrin per fly)” value [2, 11] was 6.6 nmoles of porphyrin per fly, the “Recoveries (nmoles of porphyrin per fly)” value [2, 12] was 7.5 nmoles of porphyrin per fly and the “Recoveries (nmoles of porphyrin per fly)” value [2, 13] was 3.6 nmoles of porphyrin per fly. For the same compound, the “Recoveries (nmoles of porphyrin per fly)” value [2, 14] was 7.5 nmoles of porphyrin per fly, the “Recoveries (nmoles of porphyrin per fly)” value [2, 15] was 8.3 nmoles of porphyrin per fly and the “Recoveries (nmoles of porphyrin per fly)” value [2, 16] was 14.3 nmoles of porphyrin per fly. The “Recoveries (nmoles of porphyrin per fly)” value [2, 17] was 16.2 nmoles of porphyrin per fly, the “Recoveries (nmoles of porphyrin per fly)” value [3, 10] was 3.2 nmoles of porphyrin per fly and the “Recoveries (nmoles of porphyrin per fly)” value [3, 11] was 8.9 nmoles of porphyrin per fly. For the same compound, the “Recoveries (nmoles of porphyrin per fly)” value [3, 12] was 9.2 nmoles of porphyrin per fly, the “Recoveries (nmoles of porphyrin per fly)” value [3, 13] was 5.9 nmoles of porphyrin per fly and the “Recoveries (nmoles of porphyrin per fly)” value [3, 14] was 9.2 nmoles of porphyrin per fly. For the same compound, the “Recoveries (nmoles of porphyrin per fly)” value [3, 15] was 12.8 nmoles of porphyrin per fly, the “Recoveries (nmoles of porphyrin per fly)” value [3, 16] was 15.7 nmoles of porphyrin per fly and the “Recoveries (nmoles of porphyrin per fly)” value [3, 17] was 15.7 nmoles of porphyrin per fly. For the same compound, the “Recoveries (nmoles of porphyrin per fly), release” value ([4]; 12 h after feeding interrupted) was 3.8 nmoles of porphyrin per fly, the “Recoveries (nmoles of porphyrin per fly), release” value ([4]; 24 h after feeding interrupted) was 1.7 nmoles of porphyrin per fly and the “Recoveries (nmoles of porphyrin per fly), release” value ([4]; 48 h after feeding interrupted) was 0.6 nmoles of porphyrin per fly. The “Recoveries (nmoles of porphyrin per fly), release” value ([5]; 12 h after feeding interrupted) was 3.7 nmoles of porphyrin per fly, the “Recoveries (nmoles of porphyrin per fly), release” value ([5]; 24 h after feeding interrupted) was 2.2 nmoles of porphyrin per fly and the “Recoveries (nmoles of porphyrin per fly), release” value ([5]; 48 h after feeding interrupted) was 1.0 nmoles of porphyrin per fly. For the same compound, the “Recoveries (nmoles of porphyrin per fly), release” value ([6]; 12 h after feeding interrupted) was 4.2 nmoles of porphyrin per fly, the “Recoveries (nmoles of porphyrin per fly), release” value ([6]; 24 h after feeding interrupted) was 2.3 nmoles of porphyrin per fly and the “Recoveries (nmoles of porphyrin per fly), release” value ([6]; 48 h after feeding interrupted) was 1.1 nmoles of porphyrin per fly. The “Survival (% of control untreated flies)” value (Ceratitis capitata flies [7]; 0.75 μM in bait) was 100 % of control untreated flies, the “Survival (% of control untreated flies)” value (Ceratitis capitata flies [7]; 1.25 μM in bait) was 42 % of control untreated flies and the “Survival (% of control untreated flies)” value (Ceratitis capitata flies [7]; 2.10 μM in bait) was 29 % of control untreated flies. The “Survival (% of control untreated flies)” value (Ceratitis capitata flies [7]; 3.00 μM in bait) was 12 % of control untreated flies, the “Survival (% of control untreated flies)” value (Ceratitis capitata flies [7]; 5.00 μM in bait) was 2 % of control untreated flies and the “Survival (% of control untreated flies)” value (Ceratitis capitata flies [7]; 8.10 μM in bait) was 0 % of control untreated flies. The “Survival (% of control untreated flies)” value (Ceratitis capitata flies [8]; 3 μM in bait 24 h, time interval feeding-irradiation 0 h, irradiation 1 h at 1220 μE s^−1m^−2) was 45 % of control untreated flies, the “Survival (% of control untreated flies)” value (Ceratitis capitata flies [8]; 3 μM in bait 24 h, time interval feeding-irradiation 12 h, irradiation 1 h at 1220 μE s^−1m^−2) was 52 % of control untreated flies and the “Survival (% of control untreated flies)” value (Ceratitis capitata flies [8]; 3 μM in bait 24 h, time interval feeding-irradiation 24 h, irradiation 1 h at 1220 μE s^−1m^−2) was 64 % of control untreated flies. For the same compound, the “Survival (% of control untreated flies)” value (Ceratitis capitata flies [8]; 3 μM in bait 24 h, time interval feeding-irradiation 48 h, irradiation 1 h at 1220 μE s^−1m^−2) was 70 % of control untreated flies, the “Survival (% of control untreated flies)” value (Ceratitis capitata flies [8]; 3 μM in bait, fluence-rate 760 μE s^−1m^−2, irradiated 24 h after feeding (title)) was 52 % of control untreated flies and the “Survival (% of control untreated flies)” value (Ceratitis capitata flies [8]; 3 μM in bait, fluence-rate 1220 μE s^−1m^−2, irradiated 24 h after feeding (title)) was 45 % of control untreated flies. The “Survival (% of control untreated flies)” value (Ceratitis capitata flies [8]; 3 μM in bait, fluence-rate 1500 μE s^−1m^−2, irradiated 24 h after feeding (title)) was 40 % of control untreated flies, the “Survival (% of control untreated flies)” value (Ceratitis capitata flies [8]; 3 μM in bait, fluence-rate 2000 μE s^−1m^−2, irradiated 24 h after feeding (title)) was 31 % of control untreated flies and the “photoinsecticidal action compared among alkylated porphyrins” value (Ceratitis capitata flies [8]; irradiation with visible light or sunlight) was “drop in the overall photoactivity”. The “Survival (% of control untreated flies)” value (Ceratitis capitata flies [9]; sunlight (average 1150 μE s^−1m^−2) 15 min) was 80 % of control untreated flies, the “Survival (% of control untreated flies)” value (Ceratitis capitata flies [9]; sunlight (average 1150 μE s^−1m^−2) 30 min) was 75 % of control untreated flies and the “Survival (% of control untreated flies)” value (Ceratitis capitata flies [9]; sunlight (average 1150 μE s^−1m^−2) 45 min) was 61 % of control untreated flies. For the same compound, the “Survival (% of control untreated flies)” value (Ceratitis capitata flies [9]; sunlight (average 1150 μE s^−1m^−2) 60 min) was 31 % of control untreated flies.
